Test results: article PMC11494503, “Next Generation SICLOPPS Screening for the Identification of Inhibitors of the HIF-1α/HIF-1β Protein–Protein Interaction” (ACS Chemical Biology, 2024)
Like-named read-outs stand apart in the source and are kept apart here. Blank lines part the entries; values can stand above or below the compound they belong to. Peptide text beside a SMILES is read from it.

What was measured:
PAS-B domain of HIF-1α = molecular target: T1, PAS-B domain of HIF-1α (Homo sapiens, UniProt Q16665); experiment: Microscale thermophoresis (MST) binding to HIF-1α PAS-B domain
T1 construct: The HIF-1a PAS-B domain was expressed and purified as previously described; made in house
Procedure: We synthesized the top 20 cyclic peptides from the ranking approach. We also synthesized cyclo-CLLFVY as a control.[14] These compounds were assessed for binding to the PAS-B domain of HIF-1α by microscale thermophoresis (MST). […]

HIF-1α/HIF-1β PPI = experiment: SICLOPPS CX5 library screen in HIF-1 RTHS with biopanning and NGS; assay type: cell-based, E. coli; settings: after 2 rounds of biopanning
Description: The HIF-1 RTHS links the PPI between HIF-1α-P22 and HIF-1β-434 fusion proteins to the life/death of the host E. coli via three reporter genes.[14] Interaction of HIF-1α and HIF-1β results in the formation of a chimeric P22/434 repressor that inhibits the transcription of the KanR and His3 reporter genes, which are required for cell survival in selection media (Figure S1). Disruption of the HIF-1α/HIF-1β PPI also disrupts the repressor complex, leading to transcription of the reporter genes and survival of colonies that contain cyclic peptide HIF-1 inhibitors. Thus, cells containing cyclic peptide inhibitors of the targeted PPI will survive and grow on selective media, whereas all others will not. The HIF-1 RTHS cells were transformed with the sequenced CX5 library and, after recovery, plated onto a selective medium. After incubation for 48 h at 37 °C, selection plates were scraped to collect all colonies, and the SICLOPPS plasmids were isolated. The extein coding region of these plasmids was subsequently sequenced by NGS. We observed sequence enrichment after one round of biopanning, with the three sequences (CAAAAA, CRLYVL, and CVTYVL) making up 7.8% of the entire library with over 10 000 copies each per 1 M reads (Figure 2a). The prevalence of the control sequence was reduced by 44% from 80 000 to 45 000 copies per million reads, which further indicated enrichment of cyclic peptide inhibitors of the HIF-1α/HIF-1β PPI in the RTHS. The next 47 sequences were present with over 1000 copies after round 1 which made up a further 15% of the library (Figure 2a). HIF-1 RTHS cells were transformed with the SICLOPPS plasmid library isolated from round 1 of biopanning, for a second round of selection. After incubation, all colonies were scraped, and plasmids were isolated and sequenced by NGS as before. We observed further sequence enrichment after the second round of biopanning, evident by the shift of the library population from the mostly low-prevalence sequences in both the naïve library and after one round of biopanning to mostly highly prevalent cyclic peptide sequences after round 2 of biopanning (Figure 2b). With 159 000 copies per 1 M reads, the most prevalent sequence is CRTYIL, while the next 14 sequences were all present with more than 10 000 copies per 1 M. The top 15 sequences make up over 50% of the entire library. The CA5 internal standard dropped to 0.5%, providing further evidence of enrichment of active inhibitors during biopanning.
All reagents were purchased from Fisher Scientific or Sigma Aldrich UK unless specified otherwise.
Restriction enzymes and microbiology reagents were purchased from New England Biolabs Inc., FisherScientific (UK) or Promega (UK) and were used as directed by the manufacturer. Primers and oligonucleotides were synthesised by Integrated DNA Technologies (UK). DNA sequencing was carried out by Eurofins MWG Operon (Germany).
Construction of the RTHS and SICLOPPS library was conducted as previously described.2 […]
Electrocompetent RTHS-HIF 1 cells2 were transformed with 100 ng freshly prepared SICLOPPS CX5 library, prepared as previously detailed.3 The recovery mixture was plated on 6 square plates containing M9 minimal media supplemented with 50 µg/mL ampicillin, 25 µg/mL Spectinomycin, 50 µg/mL kanamycin, 35 µg/mL chloramphenicol, 100 µM IPTG, 6.5 µM L-arabinose and 7.5 mM 3-amino triazole and incubate at 37 °C for 48 h. To ensure sufficie transformation efficiency, 10 µL transformation mixture was subjected to 10-fold serial dilutions plated on LB-agar with 35 µg/m […]
Chloramphenicol. […] All cells were […]
then harvested by resuspending the colonies in a total of 50 mL LB medium and transferring to a centrifuge tube and centrifugation for 30 min at 4000 rpm and 4°C. The cell pellet was then subjected to maxi prep (GeneJET Plasmid Maxiprep kit Thermo Scientific) and the resulting plasmid library was used for the next round of biopanning and NGS. The second round of bio panning was […]

[1] = MST, HIF-1α PAS-B, mean (n = 3) ± SEM, read-out: KD

T1 sequence (Q16665 228-298 limits assumed): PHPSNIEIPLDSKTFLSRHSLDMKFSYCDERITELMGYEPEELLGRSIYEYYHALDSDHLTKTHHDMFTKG

Compound: CC[C@H](C)[C@@H]1NC(=O)[C@H](Cc2ccc(O)cc2)NC(=O)[C@H](CC(C)C)NC(=O)[C@H](CCCNC(=N)N)NC(=O)[C@H](CS)NC(=O)[C@H](C(C)C)NC1=O [CRLYIV, cyclo-CRLYIV] (cyclo(CRLYIV))
Kd (PAS-B domain of HIF-1α; [1]): 122 ± 4 µM
Enrichment after pan 2 [%] (HIF-1α/HIF-1β PPI): 2.142%

Compound: cyclo-CVTYVL
Enrichment after pan 2 [%] (HIF-1α/HIF-1β PPI): 3.732%

Compound: CC(C)C[C@@H]1NC(=O)[C@H](CCCNC(=N)N)NC(=O)[C@H](CS)NC(=O)[C@H](CC(C)C)NC(=O)[C@H](C(C)C)NC(=O)[C@H](Cc2ccc(O)cc2)NC1=O [CRLYVL, cyclo-CRLYVL] (cyclo(CRLYVL))
Kd (PAS-B domain of HIF-1α; [1]): 150 ± 40 µM
Enrichment after pan 2 [%] (HIF-1α/HIF-1β PPI): 8.962%

Compound: CC[C@H](C)[C@@H]1NC(=O)[C@H]([C@@H](C)O)NC(=O)[C@H](CCCNC(=N)N)NC(=O)[C@H](CS)NC(=O)[C@H](CC(C)C)NC(=O)[C@H](C(C)C)NC1=O [CRTIVL, cyclo-CRTIVL] (cyclo(CRTIVL))
Kd (PAS-B domain of HIF-1α; [1]): > 250 µM
Enrichment after pan 2 [%] (HIF-1α/HIF-1β PPI): 3.427%

Compound: CC(C)C[C@@H]1NC(=O)[C@H](C(C)C)NC(=O)[C@H](Cc2ccc(O)cc2)NC(=O)[C@H](Cc2ccc(O)cc2)NC(=O)[C@H](CCCNC(=N)N)NC(=O)[C@H](CS)NC1=O [CRYYVL, cyclo-CRYYVL] (cyclo(CRYYVL))
Kd (PAS-B domain of HIF-1α; [1]): 59 ± 7 µM
Enrichment after pan 2 [%] (HIF-1α/HIF-1β PPI): 0.6784%

Compound: CC[C@H](C)[C@@H]1NC(=O)[C@H](Cc2ccc(O)cc2)NC(=O)[C@H](C(C)C)NC(=O)[C@H](CCCNC(=N)N)NC(=O)[C@H](CS)NC(=O)[C@H](CC(C)C)NC1=O [CRVYIL, cyclo-CRVYIL] (cyclo(CRVYIL))
Kd (PAS-B domain of HIF-1α; [1]): 31 ± 6 µM
Enrichment after pan 2 [%] (HIF-1α/HIF-1β PPI): 1.306%

Compound: CC[C@H](C)[C@@H]1NC(=O)[C@H](Cc2ccccc2)NC(=O)[C@H](CCSC)NC(=O)[C@H](CCCNC(=N)N)NC(=O)[C@H](CS)NC(=O)[C@H](CC(C)C)NC1=O [CRMFIL, cyclo-CRMFIL] (cyclo(CRMFIL))
Kd (PAS-B domain of HIF-1α; [1]): 20 ± 4 µM
Enrichment after pan 2 [%] (HIF-1α/HIF-1β PPI): 0.6746%

Compound: CC(C)C[C@@H]1NC(=O)[C@H](CS)NC(=O)[C@H](Cc2ccccc2)NC(=O)[C@H](CC(C)C)NC(=O)[C@H](CC(C)C)NC(=O)[C@H](CS)NC1=O [CLLFCL, cyclo-CLLFCL] (cyclo(CLCLLF))
Kd (PAS-B domain of HIF-1α): 0.47 ± 0.01 µM
fold better KD than the control peptide cyclo-CLLFVY in the same assay (PAS-B domain of HIF-1α; MST, HIF-1α): > 80 fold
Enrichment after pan 2 [%] (HIF-1α/HIF-1β PPI): 1.071%

Kd (PAS-B domain of HIF-1α; [1]): 58 ± 17 µM
Compound: CSCC[C@@H]1NC(=O)[C@H](CCCNC(=N)N)NC(=O)[C@H](CS)NC(=O)[C@H](CC(C)C)NC(=O)[C@H](C(C)C)NC(=O)[C@H](Cc2ccc(O)cc2)NC1=O [CRMYVL, cyclo-CRMYVL] (cyclo(CRMYVL))

Compound: CC[C@H](C)[C@@H]1NC(=O)[C@H](CC(C)C)NC(=O)[C@H]([C@@H](C)CC)NC(=O)[C@H](CCCNC(=N)N)NC(=O)[C@H](CS)NC(=O)[C@H](CC(C)C)NC1=O [CRILIL, cyclo-CRILIL] (cyclo(CRILIL))
Kd (PAS-B domain of HIF-1α; [1]): 20 ± 1 µM
Enrichment after pan 2 [%] (HIF-1α/HIF-1β PPI): 2.819%

Compound: CC[C@H](C)[C@@H]1NC(=O)[C@H](CC(C)C)NC(=O)[C@H](CC(C)C)NC(=O)[C@H](CCCNC(=N)N)NC(=O)[C@H](CS)NC(=O)[C@H](CC(C)C)NC1=O [CRLLIL, cyclo-CRLLIL] (cyclo(CRLLIL))
Kd (PAS-B domain of HIF-1α; [1]): 20 ± 1 µM
Enrichment after pan 2 [%] (HIF-1α/HIF-1β PPI): 1.196%

Compound: CC[C@H](C)[C@@H]1NC(=O)[C@H](CCCNC(=N)N)NC(=O)[C@H](CCCNC(=N)N)NC(=O)[C@H](CS)NC(=O)[C@H](CC(C)C)NC(=O)[C@H]([C@@H](C)CC)NC1=O [CRRIIL, cyclo-CRRIIL] (cyclo(CRRIIL))
Kd (PAS-B domain of HIF-1α; [1]): 8 ± 1 µM
Enrichment after pan 2 [%] (HIF-1α/HIF-1β PPI): 0.9912%

Compound: CC(C)C[C@@H]1NC(=O)[C@H](C(C)C)NC(=O)[C@H](Cc2ccccc2)NC(=O)[C@H](CO)NC(=O)[C@H](CCCNC(=N)N)NC(=O)[C@H](CS)NC1=O [CRSFVL] (cyclo(CRSFVL))
Enrichment after pan 2 [%] (HIF-1α/HIF-1β PPI): 0.6155%
